The results in this text go back to patent US20220204510A1, “2,3-DIHYDRO-1H-PYRROLIZINE-7-FORMAMIDE DERIVATIVE AND APPLICATION THEREOF” (CHIA TAI TIANQING PHARMACEUTICAL GROUP CO., LTD., priority 2018, published 2022).

One data set has as its system HBV. Briefly: qPCR test in the HBV in vitro test (HBV DNA in HepG2.2.15 cells). The data set is classed as cell-based. The note with it: Hepatitis B virus, 192 h, HBV DNA in HepG2.2.15 culture medium, day 8, read-out: Half maximal inhibitory concentration (EC50) of HBV. The method, then:
To evaluate the inhibitory effect of the compound on HBV by detecting content of HBV DNA in HepG2.2.15 cells in a real-time qPCR test, with EC50 of the compound as an indicator.
3.1. HepG2.2.15 cells (4×10^4 cells/well) were inoculated into a 96-well plate and cultured at 37° C. in 5% CO2 overnight. 3.2. On day 2, the compound was 3-fold diluted in gradient for a total of 8 dilution gradients. The compound at different concentrations was added into the culture wells in duplicate. The final concentration of DMSO in the culture medium was 1%. 1 μM GLS4 was used as a 100% inhibition control (the structure of GLS4 disclosed in WO2008154817A1 is as follows:
1% DMSO was used as a 0% inhibition control. 3.3. On day 5, the culture medium was replaced with a fresh culture medium containing the compound. 3.4. On day 8, the culture medium in the culture wells was collected, and the high-throughput DNA purification kit (Qiagen-51162) was used to extract DNA. For specific steps, refer to the product manual.
3.6. Each well of the 96-well PCR plate was added with 15 μL of the reaction mixture, and then with 10 μL of sample DNA or HBV DNA standard. 3.7. The reaction conditions for PCR: heating at 95° C. for 10 min, degeneration at 95° C. for 15 s, and extension at 60° C. for 1 min, with a total of 40 cycles.
3.8.1. Calculation of the inhibition percentage: % Inh.=[1−(DNA copy number in the sample−DNA copy number in 1 μM GLS4)/(DNA copy number in the DMSO control−DNA copy number in 1 μM GLS4)]×100. 3.8.2. Calculation of EC50: half maximal inhibitory concentration (EC50) of the compound for HBV was calculated using GraphPad Prism software. 3.8.3.
(In general: Quantitative PCR measures a nucleic acid by following its amplification.)

The target of another data set is T1, CYP1A2 (Homo sapiens, UniProt P05177).
T1 construct: from tissue; host or cells: human liver microsomes
T1 sequence (P05177 1-516): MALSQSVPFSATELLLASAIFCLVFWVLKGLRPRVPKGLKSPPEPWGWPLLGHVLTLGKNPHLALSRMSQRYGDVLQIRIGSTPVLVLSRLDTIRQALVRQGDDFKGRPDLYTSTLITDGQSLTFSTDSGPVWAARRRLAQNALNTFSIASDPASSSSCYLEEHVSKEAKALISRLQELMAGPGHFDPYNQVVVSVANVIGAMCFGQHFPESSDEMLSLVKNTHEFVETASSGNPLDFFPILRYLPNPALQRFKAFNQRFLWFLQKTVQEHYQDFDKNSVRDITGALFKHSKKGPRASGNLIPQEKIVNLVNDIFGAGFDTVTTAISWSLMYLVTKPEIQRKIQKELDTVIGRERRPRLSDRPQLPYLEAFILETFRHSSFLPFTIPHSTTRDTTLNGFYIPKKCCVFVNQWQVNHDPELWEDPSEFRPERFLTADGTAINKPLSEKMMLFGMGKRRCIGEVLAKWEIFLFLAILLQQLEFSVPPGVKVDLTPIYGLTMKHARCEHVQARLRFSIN
The data set is described as follows: Inhibition of human liver microsomal cytochrome P450 isoenzymes. The data set is classed as in vitro ADME. As to conditions: human liver microsomes. The method, then:
(§1) Experimental objective: to determine the inhibitory effect of the test compound on the activity of human liver microsomal cytochrome P450 isoenzymes (CYP1A2, CYP2C9, CYP2C19, CYP2D6 and CYP3A4). Experimental procedures: first, the test compound (10 mM) was diluted in gradient to prepare working solutions (100× final concentration) at concentrations of: 5, 1.5, 0.5, 0.15, 0.05, 0.015, and 0.005 mM, and working solutions of positive inhibitors for P450 isoenzymes (CYP1A2, CYP2C9, CYP2C19, CYP2D6, and CYP3A4) and the specific substrate mixtures thereof (5 in 1) were prepared simultaneously; human liver microsomes frozen in a−80° C. refrigerator were thawed on ice, and after all thawed, the human liver microsomes were diluted with PB to prepare a working solution at a specific concentration (0.253 mg/mL); 20 μL of the substrate mixture (20 μL of PB was added into the blank well) and 158 μL of the working solution of human liver microsomes were added into the reaction plate which was then placed on ice for use; then 2 μL of the test compound at each concentration (N=1) and a specific inhibitor (N=2) were added into the corresponding well, and the group without the inhibitor (test compound or the positive inhibitor) was added with a corresponding organic solvent as a control sample (the test compound control sample was 1:1 DMSO:MeOH; the positive control sample was 1:9 DMSO:MeOH); after pre-incubation under a 37° C. water bath for 10 min, 20 μL of a coenzyme factor (NADPH) solution was added into the reaction plate and incubated under a 37° C. water bath for 10 min, 400 μL of a cold acetonitrile solution (the internal standard was 200 ng/mL Tolbutamide and Labetalol) was added to terminate the reaction, and the reaction plate was placed on a shaker and shaken for 10 min; after centrifugation at 4,000 rpm for 20 min, 200 μL of the supernatant was collected and added to 100 μL of water to dilute the sample, and, finally, the plate was sealed, oscillated shaken evenly, and subjected to LC/MS/MS detection.
(Microsomes from liver hold many membrane-bound enzymes, among them those of drug oxidation.)

A further data set concerns the target T2, CYP2C19 (Homo sapiens, UniProt P33261).
T2 construct: from tissue; host or cells: human liver microsomes
The description is as above. The data set is classed as in vitro ADME. As to conditions: human liver microsomes. On the procedure:
as §1

The target of the next data set is T3, CYP2C9 (Homo sapiens, UniProt P11712).
T3 construct: from tissue; host or cells: human liver microsomes
T3 sequence (P11712 whole entry): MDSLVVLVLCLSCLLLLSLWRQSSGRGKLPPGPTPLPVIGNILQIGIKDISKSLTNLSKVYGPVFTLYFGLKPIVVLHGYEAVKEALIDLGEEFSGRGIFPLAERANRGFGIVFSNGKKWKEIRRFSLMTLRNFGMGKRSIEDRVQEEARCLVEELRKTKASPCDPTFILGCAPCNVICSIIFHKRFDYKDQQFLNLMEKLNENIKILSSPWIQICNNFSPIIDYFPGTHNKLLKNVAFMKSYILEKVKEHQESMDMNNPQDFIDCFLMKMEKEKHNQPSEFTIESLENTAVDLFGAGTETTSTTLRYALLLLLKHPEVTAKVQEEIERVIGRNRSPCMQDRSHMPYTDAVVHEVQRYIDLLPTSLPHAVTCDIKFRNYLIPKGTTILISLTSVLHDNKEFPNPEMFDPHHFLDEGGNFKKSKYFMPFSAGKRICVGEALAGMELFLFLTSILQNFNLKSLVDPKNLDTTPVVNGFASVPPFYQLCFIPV
The description is as above. The data set is classed as in vitro ADME. As to conditions: human liver microsomes. On the procedure:
as §1

For a further data set, the target named is T4, CYP2D6 (Homo sapiens, UniProt P10635).
T4 construct: from tissue; host or cells: human liver microsomes
T4 sequence (P10635 whole entry): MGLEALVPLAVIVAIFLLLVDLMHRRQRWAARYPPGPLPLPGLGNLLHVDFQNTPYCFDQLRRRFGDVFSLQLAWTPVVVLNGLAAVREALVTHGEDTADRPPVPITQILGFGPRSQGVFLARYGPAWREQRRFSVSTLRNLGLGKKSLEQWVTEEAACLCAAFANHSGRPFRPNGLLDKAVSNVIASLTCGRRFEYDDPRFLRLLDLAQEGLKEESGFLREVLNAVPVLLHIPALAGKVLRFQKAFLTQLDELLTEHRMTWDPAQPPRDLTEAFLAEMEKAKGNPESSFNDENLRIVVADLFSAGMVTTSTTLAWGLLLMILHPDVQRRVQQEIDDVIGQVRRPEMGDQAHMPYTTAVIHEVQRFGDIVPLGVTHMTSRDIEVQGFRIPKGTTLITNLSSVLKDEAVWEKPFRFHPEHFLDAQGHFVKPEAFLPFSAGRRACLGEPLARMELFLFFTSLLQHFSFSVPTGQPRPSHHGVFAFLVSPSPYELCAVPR
The data set is described as above. The data set is classed as in vitro ADME. The note with it: human liver microsomes. On the procedure:
as §1

The target in another data set is T5, CYP3A4 (Homo sapiens, UniProt P08684).
T5 construct: from tissue; host or cells: human liver microsomes
T5 sequence (P08684 whole entry): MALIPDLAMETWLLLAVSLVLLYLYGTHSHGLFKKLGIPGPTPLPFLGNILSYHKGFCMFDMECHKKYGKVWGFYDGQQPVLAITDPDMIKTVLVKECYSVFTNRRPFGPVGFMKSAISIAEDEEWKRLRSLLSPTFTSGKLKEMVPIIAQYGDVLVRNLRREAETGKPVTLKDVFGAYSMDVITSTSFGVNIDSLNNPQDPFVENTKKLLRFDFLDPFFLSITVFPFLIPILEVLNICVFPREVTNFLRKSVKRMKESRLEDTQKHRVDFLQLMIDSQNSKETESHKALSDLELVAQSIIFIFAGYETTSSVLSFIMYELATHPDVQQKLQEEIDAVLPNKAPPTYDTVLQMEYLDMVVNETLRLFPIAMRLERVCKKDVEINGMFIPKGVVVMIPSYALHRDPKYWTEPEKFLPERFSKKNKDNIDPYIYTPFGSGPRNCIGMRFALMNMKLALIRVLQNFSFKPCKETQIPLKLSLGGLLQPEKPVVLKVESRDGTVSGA
The description is as above. As to conditions: human liver microsomes. The data set is classed as in vitro ADME. The method, then:
as §1

Data set [1] can be described thus: Metabolic stability in liver microsomes. The note with it: mouse, CD-1 mice liver microsomes. The data set is classed as in vitro ADME. On the procedure:
(§2) Experimental objective: to evaluate the metabolic stability of the test compound in CD-1 mice and human liver microsomes
(§3) Experimental procedures: first, the test compound (10 mM) was subjected to a two-step dilution, where the compound was diluted to an intermediate concentration of 100 μM with 100% methanol, and the working solution was diluted to 10 μM with a potassium phosphate buffer; eight 96-well incubation plates were prepared, and named T0, T5, T10, T20, T30, T60, Blank and NCF60, respectively; the reaction time points corresponding to the first 6 incubation plates were 0, 5, 10, 20, 30 and 60 min, respectively; for the Blank plate, neither the test compound nor a control compound was added, and for the NCF60 plate, potassium phosphate buffer was used in an incubation of 60 min in place of a NADPH regeneration system solution; 10 μL of the test compound working solution and 80 μL of the microsome working solution (liver microsome protein concentration was 0.625 mg/mL) were added to the T0, T5, T10, T20, T30, T60 and NCF60 plates, while only the microsome working solution was added to the Blank plate, and all the incubation plates were then placed in a 37° C. water bath for pre-incubation for about 10 min; after the pre-incubation, 10 μL of a NADPH regeneration system working solution was added into each sample well of all the plates except the NCF60 plate and T0 plate to start the reaction, and 10 μL of potassium phosphate buffer was added to each well of the NCF60 plate; therefore, in the test compound or control compound samples, the final reaction concentrations of the compound, testosterone, diclofenac and propafenone were 1 μM, the concentration of the liver microsomes was 0.5 mg/mL, and the final concentrations of DMSO and acetonitrile in the reaction system were 0.01% (v/v) and 0.99% (v/v), respectively; after incubation for an appropriate time (such as 5, 10, 20, 30, and 60 min), 300 μL of a stop solution (acetonitrile solution containing 100 ng/mL tolbutamide and 100 ng/mL labetalol) was added to each sample well to stop the reaction; 300 μL of the stop solution and then 10 μL of the NADPH working solution were added to the T0 plate, all the sample plates were shaken and centrifuged in a centrifuge (3220×g) for 20 min, and then 100 μL of supernatant was taken from each well and diluted with 300 μL of pure water for liquid chromatography-tandem mass spectrometry analysis.

Data set [2] can be described thus: Metabolic stability in liver microsomes. The data set is classed as in vitro ADME, human. On the procedure: as §2, §3

By IC50 is commonly meant the midpoint of a concentration-inhibition curve. A high value points to lower potency. For orientation: CLint scaled means a measure of how fast metabolising enzymes remove a compound, apart from limits set by blood flow. Read a high CLint scaled as faster metabolism. By half-life is commonly meant the time needed for the level to fall by half in the phase considered.

Read-outs that look alike come from different tables or passages of the source.

T2 sequence (P33261 whole entry): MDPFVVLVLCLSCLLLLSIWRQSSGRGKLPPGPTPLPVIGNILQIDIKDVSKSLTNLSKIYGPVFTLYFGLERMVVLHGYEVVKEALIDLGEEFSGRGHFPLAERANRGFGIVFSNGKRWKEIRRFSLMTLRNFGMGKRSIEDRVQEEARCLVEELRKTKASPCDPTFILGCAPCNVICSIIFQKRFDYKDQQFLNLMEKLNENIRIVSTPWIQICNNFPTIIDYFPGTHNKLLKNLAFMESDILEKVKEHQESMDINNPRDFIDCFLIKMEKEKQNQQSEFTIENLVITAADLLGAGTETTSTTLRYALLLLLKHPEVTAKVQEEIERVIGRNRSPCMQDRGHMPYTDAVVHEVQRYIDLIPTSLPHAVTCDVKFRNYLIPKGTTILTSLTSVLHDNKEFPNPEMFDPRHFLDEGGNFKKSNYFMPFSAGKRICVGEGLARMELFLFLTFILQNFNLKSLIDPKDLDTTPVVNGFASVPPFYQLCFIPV

On to `C[C@]1(NC(=O)C(=O)c2c(Cl)c(C(=O)Nc3ccc(F)c(F)c3)c3n2CCC3)CC[C@@H](CC(=O)O)CC1` [Compound 17], for which the EC50 with HBV came out at 0.007 µM. Moreover, the IC50 against CYP1A2, at CYP2C19, against CYP2C9, at CYP2D6 and against CYP3A4 was > 50 µM each time. For the same compound, the CLint scaled at 1 μM was < 38 mL/min/kg in data set [1] and < 8.6 mL/min/kg in data set [2] (human liver microsomes). Also, the half-life at 1 μM in data set [1] (1 μM compound, 0.5 mg/mL) was > 2.42 h; in data set [2] (Human liver microsomes, 1 μM compound, 0.5 mg/mL), > 2.42 h. Moreover, the microsomal CLint at 1 μM in data set [1] (read-out: CLint(mic)) is < 9.6 µL/min/mg; in data set [2] (human liver microsomes, read-out: CLint(mic)), < 9.6 µL/min/mg.
